Assay results reported in EP3727588B1, “ACTIVATOR PEPTIDES OF THE ENZYME ADAM 10 AND RELATED USES IN THE TREATMENT OF ALZHEIMER'S DISEASE” (UNIVERSITA' DEGLI STUDI DI MILANO, priority 2017, dated 2019).
Where “and” joins values, the source holds several entries; their conditions need not be identical. Equal values may be shown once. Peptide text beside a SMILES is read from it.

What was measured:
[1] = molecular target: T1, ADAM10/AP2 complex (Rattus norvegicus, UniProt P62944); assay: co-immunoprecipitation of ADAM10 with AP2 subunits in primary cultures of hippocampal neurons; type: cell-based
T1 construct: endogenous in cells; host or cells: primary hippocampal neurons of rat embryos, DIV14
T1 sequence (P18484 whole entry): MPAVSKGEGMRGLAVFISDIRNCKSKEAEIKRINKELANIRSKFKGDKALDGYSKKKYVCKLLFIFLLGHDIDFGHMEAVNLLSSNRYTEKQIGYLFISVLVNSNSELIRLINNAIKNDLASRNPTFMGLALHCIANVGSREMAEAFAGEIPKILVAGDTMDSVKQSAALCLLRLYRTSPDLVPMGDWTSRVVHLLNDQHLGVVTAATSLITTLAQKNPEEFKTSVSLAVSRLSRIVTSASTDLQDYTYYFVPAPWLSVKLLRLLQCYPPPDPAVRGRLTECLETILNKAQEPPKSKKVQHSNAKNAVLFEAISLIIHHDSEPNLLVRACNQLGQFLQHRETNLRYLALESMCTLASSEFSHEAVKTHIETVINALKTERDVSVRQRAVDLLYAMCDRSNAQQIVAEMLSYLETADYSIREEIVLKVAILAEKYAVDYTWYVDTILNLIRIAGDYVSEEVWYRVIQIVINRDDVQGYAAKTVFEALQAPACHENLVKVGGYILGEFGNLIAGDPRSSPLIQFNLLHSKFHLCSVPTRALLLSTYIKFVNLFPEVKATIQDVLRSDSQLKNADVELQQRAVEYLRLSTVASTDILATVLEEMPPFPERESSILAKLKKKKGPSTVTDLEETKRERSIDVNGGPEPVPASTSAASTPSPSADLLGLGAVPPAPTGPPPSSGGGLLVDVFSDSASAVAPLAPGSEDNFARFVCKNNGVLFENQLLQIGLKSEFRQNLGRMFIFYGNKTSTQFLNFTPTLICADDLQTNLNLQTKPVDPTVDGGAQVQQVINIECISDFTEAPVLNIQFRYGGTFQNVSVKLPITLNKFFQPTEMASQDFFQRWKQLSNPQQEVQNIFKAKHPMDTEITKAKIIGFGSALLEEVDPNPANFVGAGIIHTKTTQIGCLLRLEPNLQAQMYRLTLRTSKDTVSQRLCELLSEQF
T1 sequence (P62744 whole entry, further chain): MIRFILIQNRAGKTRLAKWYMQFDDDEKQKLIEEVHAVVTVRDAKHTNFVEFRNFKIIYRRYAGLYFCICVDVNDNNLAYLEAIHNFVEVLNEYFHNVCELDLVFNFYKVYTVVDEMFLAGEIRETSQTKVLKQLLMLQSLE
T1 sequence (P84092 whole entry, further chain): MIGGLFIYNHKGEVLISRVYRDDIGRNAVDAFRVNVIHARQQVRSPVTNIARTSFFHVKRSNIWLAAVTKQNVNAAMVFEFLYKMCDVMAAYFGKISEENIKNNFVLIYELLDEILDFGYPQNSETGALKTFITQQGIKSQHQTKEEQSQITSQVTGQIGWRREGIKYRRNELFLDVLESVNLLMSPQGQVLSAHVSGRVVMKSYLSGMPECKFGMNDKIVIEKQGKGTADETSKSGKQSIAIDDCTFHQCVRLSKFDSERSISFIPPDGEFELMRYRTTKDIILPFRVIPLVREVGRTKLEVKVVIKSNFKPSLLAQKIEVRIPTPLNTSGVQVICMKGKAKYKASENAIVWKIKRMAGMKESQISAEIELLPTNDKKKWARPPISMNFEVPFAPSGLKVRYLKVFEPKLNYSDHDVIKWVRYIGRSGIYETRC
T1 sequence (P62944 whole entry): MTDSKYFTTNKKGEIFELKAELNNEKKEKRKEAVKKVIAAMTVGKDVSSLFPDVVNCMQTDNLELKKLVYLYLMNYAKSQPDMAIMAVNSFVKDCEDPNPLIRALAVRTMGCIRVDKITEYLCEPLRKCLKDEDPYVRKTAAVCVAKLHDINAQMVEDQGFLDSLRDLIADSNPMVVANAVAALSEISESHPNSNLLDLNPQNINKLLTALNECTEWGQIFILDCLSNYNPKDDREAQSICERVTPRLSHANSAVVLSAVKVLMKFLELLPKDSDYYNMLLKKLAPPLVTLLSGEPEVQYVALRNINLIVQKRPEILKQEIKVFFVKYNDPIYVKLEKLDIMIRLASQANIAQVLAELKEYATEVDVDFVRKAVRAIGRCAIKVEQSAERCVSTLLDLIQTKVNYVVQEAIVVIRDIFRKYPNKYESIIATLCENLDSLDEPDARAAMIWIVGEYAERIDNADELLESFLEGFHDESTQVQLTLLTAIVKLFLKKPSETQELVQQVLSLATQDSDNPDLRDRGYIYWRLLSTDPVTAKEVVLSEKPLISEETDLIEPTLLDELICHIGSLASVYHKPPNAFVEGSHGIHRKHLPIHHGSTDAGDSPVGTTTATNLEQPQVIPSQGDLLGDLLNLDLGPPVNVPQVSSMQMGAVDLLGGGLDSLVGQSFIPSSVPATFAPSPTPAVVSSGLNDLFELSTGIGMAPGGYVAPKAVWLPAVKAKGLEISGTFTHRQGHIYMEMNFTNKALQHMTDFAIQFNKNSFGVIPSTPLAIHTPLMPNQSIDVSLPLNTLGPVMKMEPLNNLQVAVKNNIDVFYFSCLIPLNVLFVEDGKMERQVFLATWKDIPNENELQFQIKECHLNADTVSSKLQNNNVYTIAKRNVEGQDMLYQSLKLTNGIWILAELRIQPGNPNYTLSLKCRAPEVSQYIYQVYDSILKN
Protocol: The primary cultures were prepared from hippocampi of rat embryos as described in [20]. The cultures were grown in media containing Neurobasal (Life Technologies), B27 2% (Life Technologies), GlutaMAX 1% (Life Technologies) and Penicillin/Streptomycin 1% (Pen/Strep; Life Technologies), a 37 °C with 95% humidity and 5% CO2 for 14 days. The cells were treated by diluting the peptides in the complete growth medium, at a final concentration of 1 µM. The treatment was performed for 30 minutes at 37°C, then the neurons were lysed.
For the co-immunoprecipitation experiments, aliquots of 40-100 µg of lysate were incubated at 4°C in RIA 1X buffer (NaCl 200 mM, EDTA 10 mM, Na2HPO4 10 mM, Nonidet P-40, 0.5% and 0.1% SDS) in a final volume of 150 µl with 1-2 µg of antibody. The following day the protein complex A/G (Santa Cruz Biotechnology) was added, conjugated with agarose marbles, and the incubation was continued for 2 hours. After three washes with RIA buffer the samples were loaded onto SDS-PAGE and analysed through Western Blot.
The quantization of the Western Blot analyses was performed through an image analysis program (ImageLab -BioRad). The levels of proteins were expressed as optical density (OD) related to the different measurements and were normalized on respective tubulin levels.
After 30 minutes, the cells were processed and the cell lysate was used for performing the co-IP analyses.

[2] = leukogram (white blood cell count) after 14 days' treatment; type: in vivo, mice
Protocol: (§1) C57/BL6 adult mice were treated for 14 days with daily intraperitoneal injection of saline solution or peptides at a dose of 3 nmol/g (6-10 animals per experimental group). The animals were maintained in an enclosure at 25 ± 2 °C with an alternating light/dark cycle of 12 hours and had free access to water and food in the form of pellets (standard diet).
The blood, collected through cardiac puncture, was analysed with a laser counter (ADVIA 120, Siemens) using specific software for the murine species. From each sample a blood smear was prepared, stained with the May Grünwald-Giemsa method, and used for the morphological analysis of the leukocytes, the red blood cells and the platelet estimate. After the automatic counting of the cells and the preparation of the smear, all the samples were centrifuged and the plasma was transferred into separate test tubes. The analysis of the plasma samples was performed through automatic spectrophotometer (ILAB-300, Instrumentation Laboratory). All the results were compared with the values provided by the company Charles River for mice of the same strain and age.
Except for the basophils and eosinophils, the total count and white blood cell (WBC) differential is lower with respect to the range values in all the animals treated. However, we noticed that the reference range values provided by the company Charles River are particularly high with respect to other values provided for other control groups and in other scientific articles in which the same animal strain is analysed. Justification for these differences found is provided by the pre-analytical factors used by Charles River in determining the different reference ranges (such as the method used, the type of sampling used, etc.). Despite this, the analyses of the data performed both individually and by examining the mean and median values in the different groups, show some differences in the values referring to mice treated with the active peptide with respect to the control mice (Table 2).
The following Table 2 illustrates the results of the white blood cell count. The reference values are provided by Charles River for C57BL mice of 56-70 days.

[3] = system: dendritic spines of the hippocampal neurons; assay: dendritic spine morphology and density in hippocampus, C57BL/6 mice; type: in vivo; conditions: 14 days' treatment
Protocol: as §1
For the dendritic spine analysis, the protocol used is the one previously described by Kim et al, and envisages the use of DilDye lipophilic tracer (Invitrogen) to allow the dendritic spines to be viewed under the confocal microscope. The analysis of the dimensions and morphology of the spines was performed with ImageJ software.
The spines were classified, based on their morphology, into three different categories: thin, stubby (without a well-defined "neck") and mushroom shaped. To evaluate the possible effect induced by PEP3 on the spine morphology, two animals for each experimental group were perfused after 14 days of treatment and the brain was post-fixed in PFA and cut with a vibratome. To view the dendritic spines the lipophilic tracer DilDye was used. From the images acquired from the confocal microscope the number, length and width of the head of the dendritic spines of the hippocampal neurons were measured.

[4] = system: GFAP and Iba-1 positive cells; assay: neuro-inflammation: GFAP and Iba-1 positive cells in hippocampus; type: in vivo, mice; conditions: 5 fields, 14 days' treatment
Protocol: as §1
After the sacrifice of the treated animal, a portion of liver and a brain hemisphere were fixed in 10% formalin for 48 hours, and included in paraffin. From each block of paraffin, serial sections 5/6µm thick were obtained. The sections were then stained with haematoxylin-eosin or processed through immunohistochemistry.
Subsequently, to evaluate the presence of neuro-inflammation, 5 different fields of the hippocampus were considered to verify any presence of GFAP and Iba-1 positive cells.

[5] = primary cultures of neurons, 1µM, 30 min
[6] = primary hippocampal neurons DIV 14, 1 µM, 30 minutes
[7] = individual animal, 14 days, daily intraperitoneal 3 nmol/g

Question: Which “PEP/inPEP OD, ADAM10/AP2 complex, µ2” value [1, 5] does the source give for N=C(N)NCCC[C@H](NC(=O)CNC(=O)[C@@H](N)Cc1ccc(O)cc1)C(=O)N[C@@H](CCCCN)C(=O)N[C@@H](CCCCN)C(=O)N[C@@H](CCCNC(=N)N)C(=O)N[C@@H](CCCNC(=N)N)C(=O)N[C@@H](CCC(N)=O)C(=O)N[C@@H](CCCNC(=N)N)C(=O)N[C@@H](CCCNC(=N)N)C(=O)N[C@@H](CCCNC(=N)N)C(=O)NCC(=O)NCC(=O)N[C@@H](CO)C(=O)NCC(=O)N[C@@H](CCC(N)=O)C(=O)N1CCC[C@H]1C(=O)N1CCC[C@H]1C(=O)N[C@@H](CCCNC(=N)N)C(=O)N[C@@H](CCC(N)=O)C(=O)N[C@@H](CCCNC(=N)N)C(=O)N1CCC[C@H]1C(=O)N[C@@H](CCCNC(=N)N)C(=O)NCC(=O)O [PEP3] (H-YGRKKRRQRRRGGSGQPPRQRPRG-OH) here?
Answer: 22.43 ± 1.25%

Question: And the “PEP/inPEP OD, ADAM10/AP2 complex, α-adaptin” value [1, 5]?
Answer: 10.84 ± 5.61%

Question: What about the “reduction in the levels of interaction between ADAM10 and the complex AP2, subunit µ2” value [1, 6] of the same molecule?
Answer: 78%

Question: What about the “reduction in the levels of interaction between ADAM10 and the complex AP2, subunit α-adaptin” value [1, 6] of the same molecule?
Answer: 89%

Question: What about the “immune / allergic reactions inferred from leukogram” value ([2]; 14 days' treatment, said not biologically significant) of the same molecule?
Answer: leads to the development of specific immunity and to the possibility of developing possible allergic/hypergic reactions

Question: And the Basophils ([2]; group mean)?
Answer: 10 µL⁻¹

Question: And the Eosinophils ([2]; group mean)?
Answer: 90 µL⁻¹

Question: What about the Lymphocytes ([2]; group mean) of the same molecule?
Answer: 4460 µL⁻¹

Question: What about the Monocytes ([2]; group mean) of the same molecule?
Answer: 200 µL⁻¹

Question: What about the Neutrophils ([2]; group mean) of the same molecule?
Answer: 530 µL⁻¹

Question: And the White blood cells ([2]; group mean)?
Answer: 5290 µL⁻¹

Question: What about the Basophils ([2]; group median) of the same molecule?
Answer: 0 µL⁻¹

Question: What about the Eosinophils ([2]; group median) of the same molecule?
Answer: (-0.08). x10^3/µL

Question: And the Lymphocytes ([2]; group median)?
Answer: (-4.32). x10^3/µL

Question: And the Monocytes ([2]; group median)?
Answer: (-0.23). x10^3/µL

Question: And the Neutrophils ([2]; group median)?
Answer: (-0.54). x10^3/µL

Question: And the White blood cells ([2]; group median)?
Answer: (-5.21). x10^3/µL

Question: And the Basophils [2, 7]?
Answer: 0 µL⁻¹ and 40 µL⁻¹

Question: And the Eosinophils [2, 7]?
Answer: 140 µL⁻¹ and 60 µL⁻¹ and 90 µL⁻¹ and 40 µL⁻¹ and 120 µL⁻¹ and 70 µL⁻¹

Question: And the Lymphocytes [2, 7]?
Answer: 5740 µL⁻¹ and 2650 µL⁻¹ and 3820 µL⁻¹ and 3720 µL⁻¹ and 4810 µL⁻¹ and 6010 µL⁻¹

Question: And the Monocytes [2, 7]?
Answer: 270 µL⁻¹ and 60 µL⁻¹ and 180 µL⁻¹ and 130 µL⁻¹ and 290 µL⁻¹ and 280 µL⁻¹

Question: And the Neutrophils [2, 7]?
Answer: 680 µL⁻¹ and 340 µL⁻¹ and 460 µL⁻¹ and 440 µL⁻¹ and 650 µL⁻¹ and 630 µL⁻¹

Question: And the White blood cells [2, 7]?
Answer: 6830 µL⁻¹ and 3120 µL⁻¹ and 4550 µL⁻¹ and 4380 µL⁻¹ and 5870 µL⁻¹ and 6990 µL⁻¹

Question: What about the “density of the dendritic spines” value [3] of the same molecule?
Answer: 10.30±1.11 n. of spines/10µm

Question: What about the “length of mushroom shaped spines” value [3] of the same molecule?
Answer: 0.73±0.02

Question: What about the “length of the spines” value [3] of the same molecule?
Answer: 0.75±0.02 µm

Question: What about the “percentage of mushroom shaped spines” value [3] of the same molecule?
Answer: 28.83 ± 2.18%

Question: What about the “percentage of stubby spines” value [3] of the same molecule?
Answer: 45.25 ± 2.03%

Question: And the “percentage of thin spines” value [3]?
Answer: 25.92 ± 1.68%

Question: And the “width of the head of spines” value [3]?
Answer: 0.75±0.01 µm

Question: And the “number of GFAP positive cells” value [4]?
Answer: 37.17±3.54

Question: What about the “number of Iba-1 positive cells” value [4] of the same molecule?
Answer: 7.33±1.63
